Assays:
Test in all cases: biochemical
[1] = target: T1, LYNa (Homo sapiens, UniProt P07948)
T1 construct: gene LYN; isoform a
Procedure, shortened: (§1)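 Human kinases phosphorylating kinase-specific synthetic peptides, assayed by mobility shift (MSA) or IMAP fluorescence polarization, in 20 mM HEPES pH 7.5, 0.01% Triton X-100, 2 mM DTT with substrate/ATP-metal. Reactions ran 1 or 5 h at room temperature; activity = P/(P + S) from product and substrate peak heights.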

[2] = target: WNK3 (Homo sapiens, UniProt Q9BYP7)
Procedure, shortened: as §1

[3] = target: MAPKAPK5 (Homo sapiens, UniProt Q8IW41)
Procedure, shortened: as §1

[4] = target: T2, FMS (Homo sapiens, UniProt P07333)
T2 construct: gene CSF1R
T2 sequence (P07333 whole entry): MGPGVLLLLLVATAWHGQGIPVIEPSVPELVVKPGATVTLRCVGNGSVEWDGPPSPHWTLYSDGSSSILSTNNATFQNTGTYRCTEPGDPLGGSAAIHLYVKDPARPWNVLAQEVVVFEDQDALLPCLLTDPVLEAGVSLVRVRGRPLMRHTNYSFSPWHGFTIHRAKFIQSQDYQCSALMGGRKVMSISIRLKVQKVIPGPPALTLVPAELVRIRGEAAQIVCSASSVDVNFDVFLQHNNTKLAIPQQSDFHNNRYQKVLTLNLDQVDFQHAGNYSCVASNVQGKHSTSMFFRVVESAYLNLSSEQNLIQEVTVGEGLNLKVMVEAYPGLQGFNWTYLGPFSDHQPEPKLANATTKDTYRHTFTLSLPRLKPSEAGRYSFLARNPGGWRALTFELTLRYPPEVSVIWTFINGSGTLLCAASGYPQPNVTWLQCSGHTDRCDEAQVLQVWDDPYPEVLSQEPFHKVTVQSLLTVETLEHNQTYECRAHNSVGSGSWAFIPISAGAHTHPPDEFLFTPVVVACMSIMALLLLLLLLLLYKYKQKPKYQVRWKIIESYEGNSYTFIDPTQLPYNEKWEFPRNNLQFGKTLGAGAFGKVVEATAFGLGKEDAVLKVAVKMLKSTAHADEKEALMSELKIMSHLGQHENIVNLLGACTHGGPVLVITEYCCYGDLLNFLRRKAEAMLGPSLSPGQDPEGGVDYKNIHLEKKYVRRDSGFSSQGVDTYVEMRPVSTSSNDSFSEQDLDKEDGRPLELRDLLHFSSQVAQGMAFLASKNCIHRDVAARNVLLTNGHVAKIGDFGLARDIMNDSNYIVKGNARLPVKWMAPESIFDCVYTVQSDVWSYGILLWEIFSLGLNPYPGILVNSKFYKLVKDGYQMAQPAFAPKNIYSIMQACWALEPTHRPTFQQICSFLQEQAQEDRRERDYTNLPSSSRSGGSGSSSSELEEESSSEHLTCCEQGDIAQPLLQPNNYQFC
Procedure, shortened: as §1

[5] = target: FGFR4 (Homo sapiens, UniProt P22455)
Procedure, shortened: as §1

[6] = target: PAK5 (Homo sapiens, UniProt Q9P286)
Procedure, shortened: as §1

[7] = target: PAK2 (Homo sapiens, UniProt Q13177)
Procedure, shortened: as §1

[8] = target: T3, GSK3α (Homo sapiens, UniProt P49840)
T3 construct: gene GSK3A
Procedure, shortened: as §1

[9] = target: T4, p70S6K (Homo sapiens, UniProt P23443)
T4 construct: gene RPS6KB1
Procedure, shortened: as §1

[10] = target: T5, Erk5 (Homo sapiens, UniProt Q13164)
T5 construct: gene MAPK7
Procedure, shortened: as §1

[11] = target: NEK6 (Homo sapiens, UniProt Q9HC98)
Procedure, shortened: as §1

[12] = target: T6, MER (Homo sapiens, UniProt Q12866)
T6 construct: gene MERTK
Procedure, shortened: as §1

[13] = target: EGFR (Homo sapiens, UniProt P00533)
Procedure, shortened: as §1

[14] = target: T7, CDC2/CycB1 (Homo sapiens, UniProt P06493)
T7 construct: gene CDK1
T7 sequence (P06493 whole entry): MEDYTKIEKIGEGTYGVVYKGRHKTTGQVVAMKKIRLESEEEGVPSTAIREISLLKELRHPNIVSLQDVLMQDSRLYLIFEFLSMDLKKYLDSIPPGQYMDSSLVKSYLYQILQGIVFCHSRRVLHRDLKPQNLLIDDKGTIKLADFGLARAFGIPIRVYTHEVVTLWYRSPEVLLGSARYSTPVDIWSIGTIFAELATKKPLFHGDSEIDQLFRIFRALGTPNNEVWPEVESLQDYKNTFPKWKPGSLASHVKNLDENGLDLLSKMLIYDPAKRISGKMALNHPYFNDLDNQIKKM
T7 sequence (P14635 whole entry partner): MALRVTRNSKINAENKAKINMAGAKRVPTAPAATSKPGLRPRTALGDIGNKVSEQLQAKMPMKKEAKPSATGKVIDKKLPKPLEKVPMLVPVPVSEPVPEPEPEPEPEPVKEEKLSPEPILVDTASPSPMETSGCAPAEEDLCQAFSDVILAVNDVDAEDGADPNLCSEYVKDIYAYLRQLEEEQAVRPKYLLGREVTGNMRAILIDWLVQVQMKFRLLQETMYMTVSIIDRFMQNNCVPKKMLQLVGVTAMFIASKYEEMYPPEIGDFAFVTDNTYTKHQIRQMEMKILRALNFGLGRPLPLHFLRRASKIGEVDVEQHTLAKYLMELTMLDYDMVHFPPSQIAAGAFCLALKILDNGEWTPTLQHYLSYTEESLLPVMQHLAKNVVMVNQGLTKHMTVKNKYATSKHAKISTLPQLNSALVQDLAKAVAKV
Procedure, shortened: as §1

[15] = target: T8, ABL (Homo sapiens, UniProt P00519)
T8 construct: gene ABL1
Procedure, shortened: as §1

[16] = target: SGK2 (Homo sapiens, UniProt Q9HBY8)
Procedure, shortened: as §1

[17] = target: RET(G691S) (Homo sapiens, UniProt P07949, G691S)
Procedure, shortened: as §1

[18] = target: AKT1 (Homo sapiens, UniProt P31749)
Procedure, shortened: as §1

[19] = target: T9, HER4 (Homo sapiens, UniProt Q15303)
T9 construct: gene ERBB4
Procedure, shortened: as §1

[20] = target: T10, CK1ε (Homo sapiens, UniProt P49674)
T10 construct: gene CSNK1E
Procedure, shortened: as §1

[21] = target: T11, YES (Homo sapiens, UniProt P07947)
T11 construct: gene YES1
Procedure, shortened: as §1

[22] = target: CDK4/CycD3 (Homo sapiens, UniProt P11802)
Procedure, shortened: as §1

[23] = target: JAK1 (Homo sapiens, UniProt P23458)
Procedure, shortened: as §1

[24] = target: T12, CK2α2/β (Homo sapiens, UniProt P19784)
T12 construct: gene CSNK2A2
T12 sequence (P19784 whole entry): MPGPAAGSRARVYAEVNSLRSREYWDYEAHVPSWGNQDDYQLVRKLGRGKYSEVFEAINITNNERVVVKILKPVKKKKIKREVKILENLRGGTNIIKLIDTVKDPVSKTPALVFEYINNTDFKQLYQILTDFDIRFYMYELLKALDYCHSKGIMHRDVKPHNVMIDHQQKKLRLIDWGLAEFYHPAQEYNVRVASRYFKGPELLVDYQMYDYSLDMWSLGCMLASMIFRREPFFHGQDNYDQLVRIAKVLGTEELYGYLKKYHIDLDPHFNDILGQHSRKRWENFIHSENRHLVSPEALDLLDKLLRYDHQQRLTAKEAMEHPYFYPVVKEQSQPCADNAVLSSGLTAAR
T12 sequence (P67870 whole entry partner): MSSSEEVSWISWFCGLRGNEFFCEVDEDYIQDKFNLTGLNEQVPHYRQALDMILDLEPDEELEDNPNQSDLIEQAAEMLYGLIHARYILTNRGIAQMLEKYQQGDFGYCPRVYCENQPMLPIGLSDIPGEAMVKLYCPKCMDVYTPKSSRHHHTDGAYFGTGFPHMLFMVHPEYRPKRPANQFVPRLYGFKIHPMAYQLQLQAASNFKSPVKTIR
Procedure, shortened: as §1

[25] = target: T13, NDR1 (Homo sapiens, UniProt Q15208)
T13 construct: gene STK38
T13 sequence (Q15208 whole entry): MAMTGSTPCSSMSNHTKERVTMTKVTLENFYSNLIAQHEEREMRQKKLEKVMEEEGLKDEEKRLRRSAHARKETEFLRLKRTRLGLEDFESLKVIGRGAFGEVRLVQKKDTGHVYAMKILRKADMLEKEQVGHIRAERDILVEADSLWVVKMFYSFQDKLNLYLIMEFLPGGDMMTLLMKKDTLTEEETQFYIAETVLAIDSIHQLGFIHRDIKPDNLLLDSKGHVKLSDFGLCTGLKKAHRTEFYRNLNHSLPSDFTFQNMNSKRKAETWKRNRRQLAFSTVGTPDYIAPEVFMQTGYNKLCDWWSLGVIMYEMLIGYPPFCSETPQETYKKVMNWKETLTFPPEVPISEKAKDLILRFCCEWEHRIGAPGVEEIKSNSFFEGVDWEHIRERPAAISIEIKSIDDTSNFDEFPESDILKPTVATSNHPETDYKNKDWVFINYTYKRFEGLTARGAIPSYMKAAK
Procedure, shortened: as §1

[26] = target: EPHA8 (Homo sapiens, UniProt P29322)
Procedure, shortened: as §1

[27] = target: FRK (Homo sapiens, UniProt P42685)
Procedure, shortened: as §1

[28] = target: EPHA1 (Homo sapiens, UniProt P21709)
Chain of EPHA1 (P21709 whole entry): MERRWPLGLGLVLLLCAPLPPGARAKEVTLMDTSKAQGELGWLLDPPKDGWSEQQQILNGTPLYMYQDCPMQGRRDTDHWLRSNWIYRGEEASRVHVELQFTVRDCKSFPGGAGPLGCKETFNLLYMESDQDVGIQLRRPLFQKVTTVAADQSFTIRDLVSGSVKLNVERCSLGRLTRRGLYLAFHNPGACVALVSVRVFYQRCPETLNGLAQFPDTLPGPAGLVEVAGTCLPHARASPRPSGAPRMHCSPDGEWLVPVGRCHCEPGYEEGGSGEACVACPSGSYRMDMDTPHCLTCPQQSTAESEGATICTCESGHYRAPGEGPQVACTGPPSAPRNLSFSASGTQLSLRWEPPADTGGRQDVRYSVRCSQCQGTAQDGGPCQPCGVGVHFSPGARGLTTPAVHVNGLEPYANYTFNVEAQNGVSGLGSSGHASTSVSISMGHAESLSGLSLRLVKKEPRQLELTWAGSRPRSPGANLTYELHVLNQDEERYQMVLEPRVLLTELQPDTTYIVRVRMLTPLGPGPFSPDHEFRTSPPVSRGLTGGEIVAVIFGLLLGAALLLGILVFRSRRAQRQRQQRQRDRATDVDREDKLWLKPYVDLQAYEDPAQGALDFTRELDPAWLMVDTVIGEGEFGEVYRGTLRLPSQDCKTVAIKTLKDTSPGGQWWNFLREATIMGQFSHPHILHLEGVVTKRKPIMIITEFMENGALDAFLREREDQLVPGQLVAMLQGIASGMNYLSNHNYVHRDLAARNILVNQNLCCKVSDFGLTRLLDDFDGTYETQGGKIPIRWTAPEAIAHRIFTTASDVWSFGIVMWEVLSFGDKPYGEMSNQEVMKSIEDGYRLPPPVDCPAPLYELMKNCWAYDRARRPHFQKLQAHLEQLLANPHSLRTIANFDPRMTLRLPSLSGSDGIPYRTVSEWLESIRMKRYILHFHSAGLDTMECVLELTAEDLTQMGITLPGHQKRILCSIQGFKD
Procedure, shortened: as §1

[29] = target: SPHK2 (Homo sapiens, UniProt Q9NRA0)
Chain of SPHK2 (Q9NRA0 whole entry): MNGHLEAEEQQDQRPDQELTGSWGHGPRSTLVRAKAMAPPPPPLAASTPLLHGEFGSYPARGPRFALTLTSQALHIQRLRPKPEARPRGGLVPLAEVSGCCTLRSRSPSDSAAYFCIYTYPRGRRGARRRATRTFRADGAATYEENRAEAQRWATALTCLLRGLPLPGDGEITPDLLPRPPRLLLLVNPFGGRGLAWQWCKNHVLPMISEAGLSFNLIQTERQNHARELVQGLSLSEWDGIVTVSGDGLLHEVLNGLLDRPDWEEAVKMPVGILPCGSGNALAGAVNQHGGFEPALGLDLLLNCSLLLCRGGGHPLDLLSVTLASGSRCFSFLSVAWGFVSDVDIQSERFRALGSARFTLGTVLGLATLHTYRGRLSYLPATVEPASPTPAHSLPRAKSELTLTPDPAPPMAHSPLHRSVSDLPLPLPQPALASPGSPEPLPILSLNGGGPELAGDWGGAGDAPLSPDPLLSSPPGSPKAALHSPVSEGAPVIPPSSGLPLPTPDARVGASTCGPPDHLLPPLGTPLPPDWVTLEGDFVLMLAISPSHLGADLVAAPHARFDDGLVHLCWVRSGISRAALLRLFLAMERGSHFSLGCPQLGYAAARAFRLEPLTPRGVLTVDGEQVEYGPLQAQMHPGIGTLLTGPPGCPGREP
Procedure, shortened: as §1

[30] = target: CLK3 (Homo sapiens, UniProt P49761)
Chain of CLK3 (P49761 whole entry): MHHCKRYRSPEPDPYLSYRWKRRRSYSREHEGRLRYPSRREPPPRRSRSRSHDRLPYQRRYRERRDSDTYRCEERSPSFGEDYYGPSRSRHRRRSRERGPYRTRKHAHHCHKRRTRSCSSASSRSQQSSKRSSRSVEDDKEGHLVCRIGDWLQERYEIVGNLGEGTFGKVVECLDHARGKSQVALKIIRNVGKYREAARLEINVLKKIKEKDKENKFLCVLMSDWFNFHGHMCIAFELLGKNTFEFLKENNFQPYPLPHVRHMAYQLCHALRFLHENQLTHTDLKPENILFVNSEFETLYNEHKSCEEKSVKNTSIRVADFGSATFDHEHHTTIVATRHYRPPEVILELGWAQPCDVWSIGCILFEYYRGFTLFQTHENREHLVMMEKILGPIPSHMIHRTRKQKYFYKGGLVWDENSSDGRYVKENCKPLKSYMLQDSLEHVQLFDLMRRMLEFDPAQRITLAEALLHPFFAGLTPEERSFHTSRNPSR
Procedure, shortened: as §1

[31] = target: T14, CaMK2α (Homo sapiens, UniProt Q9UQM7)
T14 construct: gene CAMK2A
Procedure, shortened: as §1

c1cc(-c2ccc3[nH]ncc3c2)ccn1 [TG693, 5-(4-pyridinyl)-1H-indazole]
inhibition at 1 µM [1]: 0.1% | inhibition at 1 µM [2]: -4.9% | inhibition at 1 µM [3]: 2.6% | inhibition at 1 µM [4]: 2.6% | inhibition at 1 µM [5]: 4.3% | inhibition at 1 µM [6]: -14% | inhibition at 1 µM [7]: -51.3% | inhibition at 1 µM [8]: 12.6% | inhibition at 1 µM [9]: 46% | inhibition at 1 µM [10]: 2.2% | inhibition at 1 µM [11]: -2.5% | inhibition at 1 µM [12]: 3% | inhibition at 1 µM [13]: -10.7% | inhibition at 1 µM [14]: 10.3% | inhibition at 1 µM [15]: -1.3% | inhibition at 1 µM [16]: -5.4% | inhibition at 1 µM [17]: 4.9% | inhibition at 1 µM [18]: -1.3% | inhibition at 1 µM [19]: 5.8% | inhibition at 1 µM [20]: 8% | inhibition at 1 µM [21]: -9.6% | inhibition at 1 µM [22]: 5.4% | inhibition at 1 µM [23]: -0.7% | inhibition at 1 µM [24]: 14.6% | inhibition at 1 µM [25]: 11.5% | inhibition at 1 µM [26]: 7.3% | inhibition at 1 µM [27]: -2.3% | inhibition at 1 µM [28]: -2.8% | inhibition at 1 µM [29]: 4.1% | inhibition at 1 µM [30]: 11.7% | inhibition at 1 µM [31]: -3.3%
